# Data: patent publication US20020006920A1, “Arylsulfonylamino hydroxamic acid derivatives” (priority 1999, published 2002)
row,melting point,Structure (SMILES)
1,126 to 127 °C,"CC(C)(NS(=O)(=O)c1ccc(OCCC2CCCC2)cc1)C(=O)NO [Example 12, 2-[4-(2-Cyclopentylethoxy)benzenesulfonylamino]-N-hydroxy-2-methyl-propionamide]"
2,165 to 166 °C,"CC(C)(NS(=O)(=O)c1ccc(-c2ccccn2)s1)C(=O)NO [Example 13, N-Hydroxy-2-methyl-2-(5-pyridin-2-ylthiophene-2-sulfonylamino)propionamide]"
3,122 to 125 °C,"COc1ccc(S(=O)(=O)NC(C)(C)C(=O)NO)cc1 [Example 9, N-Hydroxy-2-(4-methoxybenzenesulfonylamino)-2-methylpropionamide]"

# Second part, the molecule before the results:
row,Structure (SMILES),melting point
1,"CC(C)CCOc1ccc(S(=O)(=O)NC(C)(C)C(=O)NO)cc1 [Example 11, N-Hydroxy-2-methyl-2-[4-(3-methylbutoxy)benzenesulfonylamino]-propionamide]",126.5 to 128 °C
2,"O=C(NO)C1(NS(=O)(=O)c2ccc(Oc3ccc(F)cc3)cc2)CCCCC1 [Example 4, 1-[4-(4-Fluorophenoxy)benzenesulfonylamino]cyclohexane-1-carboxylic acid hydroxyamide]",174 °C
3,"O=C(NO)C1(NS(=O)(=O)c2ccc(Oc3ccc(F)cc3)cc2)CC1 [Example 5, 1-[4-(4-Fluorophenoxy)benzenesulfonylamino]cyclopropane-1-carboxylic acid hydroxyamide]",184 °C
